# Data reported in patent US6083964A, “Optical resolution of racemic aminoalkylpyridine anticonvulsants and (+) aminoalkylpyridine enantiomers as highly potent orally effective anticonvulsant drugs and excitatory amino acid antagonists” (K and K Biosciences, Inc., priority 1999, dated 2000).
# Tests used:
# [1] = tested on: maximal electroshock seizure (MES) in mice; assay: Maximal electroshock seizure (MES) test, mice, i.p.; format: in vivo, mouse (male Carworth Farms #1); conditions: for P.I. (protective index, TD50/ED50): MES; for ED50: Mus musculus, ip, MES test, read-out: ED50
# Text: The (+) AAP enantiomers obtained by optical resolution of racemic AAPs and the resulting highly orally effective anticonvulsant compositions of this invention are useful in the treatment of convulsive disorders. […] A series of (+) AAP enantiomers and (-) AAP enantiomers of this invention has been evaluated for anticonvulsant activity by the intraperitoneal (i.p.) and by the oral (p.o.) route using two standard seizure models in the mouse and in the rat, the maximal electroshock seizure (MES) test and the subcutaneous pentylenetetrazol (Metrazole) seizure threshold (scMet) test. […] The following Table 2 presents the results of these anticonvulsant tests with respect to several (+) and (-) AAP enantiomeric compounds derived from optical resolution of racemic AAPs of the present invention. This Table 2 identifies the specific compounds tested by their chemical name and provides the test model, the route of administration, the animal species used, and the anticonvulsant activity and toxicity in terms of ED50 and TD50 values, (the median effective and toxic dose respectively), when intraperitoneally administered to mice, and when orally administered to rats. In mice, i.p.: All compounds are emulsified in 0.5% methylcellulose. The solvent has been tested for anticonvulsant and toxic effects and found to introduce no significant bias into the testing of anticonvulsant activity. The compounds are administered intraperitoneally in a volume of 0.01 ml/gm to male Carworth Farms #1 mice weighing about 20 gm. All compounds are tested at least at three dose levels (30, 100 and 300 mg/kg) at 30 minutes and 4 hours after their administration. The Maximal Electroshock Seizure Test (MES): Maximal electroshock seizures are elicited with a 60 Hz alternating current of 50 mA intensity in mice and about 150 mA intensity in rats (5-7 times that necessary to elicit minimal electroshock seizures), delivered for 0.2 sec via corneal electrodes. A drop of 0.9% saline is instilled in the eye prior to application of the electrodes in order to […]. Abolition of the hind limb tonic extension component of the seizure is defined as protection and results are expressed as number of animals protected/number of animals tested. The Subcutaneous Pentylenetetrazol (Metrazole) Seizure Threshold Test (scMet): A 0.5% solution of 85 mg/kg of pentylenetetrazol is administered subcutaneously in the posterior midline 30 minutes or 4 hours after drug administration to the animal. […] Anticonvulsant Quantification in Mice i.p.: The ED50 values are determined in the MES, scMet and rotorod ataxia test. To determine the ED50 values, five logarithmically spaced doses of the test compound are administered to animals (male Carworth Farms #1 mice) in groups of eight, to cover 0-100% protection, and the dose required to protect 50% of the animals (ED50) together with its 95% confidence limits, is determined graphically.
# [2] = Neurotoxicity, rotorod ataxia test, mice, i.p.; parameters: species or system mouse (male Carworth Farms #1); conditions: mouse, in vivo, ip, TD50
# Experimental: Neurotoxicity is determined by the rotorod ataxia test in mice and by the positional sense test and gait and stance test in the rat. The following Table 2 presents the results of these anticonvulsant tests with respect to several (+) and (-) AAP enantiomeric compounds derived from optical resolution of racemic AAPs of the present invention. This Table 2 identifies the specific compounds tested by their chemical name and provides the test model, the route of administration, the animal species used, and the anticonvulsant activity and toxicity in terms of ED50 and TD50 values, (the median effective and toxic dose respectively), when intraperitoneally administered to mice, and when orally administered to rats. In mice, i.p.: All compounds are emulsified in 0.5% methylcellulose. The solvent has been tested for anticonvulsant and toxic effects and found to introduce no significant bias into the testing of anticonvulsant activity. The compounds are administered intraperitoneally in a volume of 0.01 ml/gm to male Carworth Farms #1 mice weighing about 20 gm. All compounds are tested at least at three dose levels (30, 100 and 300 mg/kg) at 30 minutes and 4 hours after their administration. Neurotoxicity is evaluated in mice by the rotorod ataxia test. The animal is placed on a wooden rod of 1 and 1/8 diameter rotating at 6 rpm. Normal mice can remain on a rod rotating at this speed indefinitely. […] Anticonvulsant Quantification in Mice i.p.: The ED50 values are determined in the MES, scMet and rotorod ataxia test. To determine the ED50 values, five logarithmically spaced doses of the test compound are administered to animals (male Carworth Farms #1 mice) in groups of eight, to cover 0-100% protection, and the dose required to protect 50% of the animals (ED50) together with its 95% confidence limits, is determined graphically.
# [3] = tested on: maximal electroshock seizure (MES) in rats; assay: Maximal electroshock seizure (MES) test, rats, p.o.; format: in vivo, rat (Sprague-Dawley); conditions: p.o.; for % protection (lowest and highest) during 4 hour period: 30 mg/kg, 5 time points 0.25-4 hours, 4 rats per point
# Text: The (+) AAP enantiomers obtained by optical resolution of racemic AAPs and the resulting highly orally effective anticonvulsant compositions of this invention are useful in the treatment of convulsive disorders. […] A series of (+) AAP enantiomers and (-) AAP enantiomers of this invention has been evaluated for anticonvulsant activity by the intraperitoneal (i.p.) and by the oral (p.o.) route using two standard seizure models in the mouse and in the rat, the maximal electroshock seizure (MES) test and the subcutaneous pentylenetetrazol (Metrazole) seizure threshold (scMet) test. […] The following Table 2 presents the results of these anticonvulsant tests with respect to several (+) and (-) AAP enantiomeric compounds derived from optical resolution of racemic AAPs of the present invention. This Table 2 identifies the specific compounds tested by their chemical name and provides the test model, the route of administration, the animal species used, and the anticonvulsant activity and toxicity in terms of ED50 and TD50 values, (the median effective and toxic dose respectively), when intraperitoneally administered to mice, and when orally administered to rats. The Maximal Electroshock Seizure Test (MES): Maximal electroshock seizures are elicited with a 60 Hz alternating current of 50 mA intensity in mice and about 150 mA intensity in rats (5-7 times that necessary to elicit minimal electroshock seizures), delivered for 0.2 sec via corneal electrodes. A drop of 0.9% saline is instilled in the eye prior to application of the electrodes in order to […]. Abolition of the hind limb tonic extension component of the seizure is defined as protection and results are expressed as number of animals protected/number of animals tested. The Subcutaneous Pentylenetetrazol (Metrazole) Seizure Threshold Test (scMet): A 0.5% solution of 85 mg/kg of pentylenetetrazol is administered subcutaneously in the posterior midline 30 minutes or 4 hours after drug administration to the animal. […] This species will be the subject of the complete anticonvulsant quantification test evaluation as described above, but after oral (gavage) administration of the candidate compound.
# [4] = Neurological deficit, positional sense test and gait and stance test, rats, p.o.; parameters: species or system rat (Sprague-Dawley); conditions: rat, in vivo, po
# Experimental: Neurotoxicity is determined by the rotorod ataxia test in mice and by the positional sense test and gait and stance test in the rat. The following Table 2 presents the results of these anticonvulsant tests with respect to several (+) and (-) AAP enantiomeric compounds derived from optical resolution of racemic AAPs of the present invention. This Table 2 identifies the specific compounds tested by their chemical name and provides the test model, the route of administration, the animal species used, and the anticonvulsant activity and toxicity in terms of ED50 and TD50 values, (the median effective and toxic dose respectively), when intraperitoneally administered to mice, and when orally administered to rats. […] This species will be the subject of the complete anticonvulsant quantification test evaluation as described above, but after oral (gavage) administration of the candidate compound. […] Neurological deficit in rats is examined by the positional sense test and gait and stance test. […] Inability to do so rapidly indicates a neurologic deficit. In the gait and stance test, a neurologic deficit is indicated by a circular or a zigzag gait, ataxia, abnormal spread of the legs, abnormal body posture, tremor, hyperactivity, lack of exploratory behavior, somnolence, stupor, or catalepsy.
# [5] = tested on: pentylenetetrazol (Metrazole) seizure threshold in mice; conditions: cited from earlier work; for amounts of PTZ required to produce the endpoints (in words): mouse, in vivo
# [6] = tested on: maximal electroshock seizure (MES) in mice; conditions: mouse, in vivo; cited from earlier work
structure (smiles),measurement,setting,value
"CC(Nc1ccc(Cl)c(Cl)c1)c1ccncc1 (single isomer, unassigned; (+)) [Compound 5, (+) N-(3,4-Dichlorophenyl)-1-(4-pyridyl)ethylamine]","P.I. (protective index, TD50/ED50)",[1]; listed as (3) (+) Enantiomer,> 6.6
same,ED50,[1],76.1 mg/kg
same,TD50,[2],> 500 mg/kg
same,ED50,"[3]; Rattus norvegicus, po, MES test, read-out: ED50",32.3 mg/kg
same,% protection (lowest and highest) during 4 hour period,"[3]; rat, MES, listed as (3) (+) Enantiomer",0-100%
same,"P.I. (protective index, TD50/ED50)","[3]; rat, MES",> 15.5
same,TD50,[4],> 500 mg/kg
"CCC(Nc1ccc(Cl)cc1)c1ccncc1 (single isomer, unassigned; (+)) [Compound 7, (+) N-(4-Chlorophenyl)-1-(4-pyridyl)propylamine]","P.I. (protective index, TD50/ED50)",[1]; listed as (4) (+) Enantiomer,2.9
same,ED50,[1],109 mg/kg
same,TD50,[2],322 mg/kg
same,% protection (lowest and highest) during 4 hour period,"[3]; rat, MES, listed as (4) (+) Enantiomer",0-75%
"CCC(Nc1ccc(Cl)c(Cl)c1)c1ccncc1 (single isomer, unassigned; (+)) [Compound 9, (+) N-(3,4-Dichlorophenyl)-1-(4-pyridyl)propylamine]","P.I. (protective index, TD50/ED50)",[1]; listed as (5) (+) Enantiomer,3.0
same,ED50,[1],91.9 mg/kg
same,TD50,[2],279 mg/kg
same,% protection (lowest and highest) during 4 hour period,"[3]; rat, MES, listed as (5) (+) Enantiomer",0-75%
Cc1cccc(C)c1OCC(C)N (centres unmarked) [Mexiletine],seizure threshold (in words),[5]; doses slightly above the MES ED50 in mice,lowers seizure threshold at doses slightly above the MES ED50 in mice
same,MES test activity (in words),[6],potent in the MES test
CCC1(C)CC(=O)NC1=O (centres unmarked) [ethosuximide],amounts of PTZ required to produce the endpoints (in words),[5],increase the amounts of PTZ required to produce the above endpoints
CCC1(c2ccccc2)C(=O)NC(=O)NC1=O [phenobarbital],amounts of PTZ required to produce the endpoints (in words),[5],increase the amounts of PTZ required to produce the above endpoints
CCCC(CCC)C(=O)O [valproic acid],amounts of PTZ required to produce the endpoints (in words),[5],increase the amounts of PTZ required to produce the above endpoints
